Source: ChEMBL document CHEMBL1201862, “PubChem BioAssay data set” (2004)
Activity calls are given as the source filed them.

How the values were obtained:
Cytochrome P450 1A2 = molecular target: T1, Cytochrome P450 1A2 (Homo sapiens, UniProt P05177);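 note: PubChem cytochrome P450 panel assay, CYP1A2 panel member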
T1 sequence (P05177 whole entry): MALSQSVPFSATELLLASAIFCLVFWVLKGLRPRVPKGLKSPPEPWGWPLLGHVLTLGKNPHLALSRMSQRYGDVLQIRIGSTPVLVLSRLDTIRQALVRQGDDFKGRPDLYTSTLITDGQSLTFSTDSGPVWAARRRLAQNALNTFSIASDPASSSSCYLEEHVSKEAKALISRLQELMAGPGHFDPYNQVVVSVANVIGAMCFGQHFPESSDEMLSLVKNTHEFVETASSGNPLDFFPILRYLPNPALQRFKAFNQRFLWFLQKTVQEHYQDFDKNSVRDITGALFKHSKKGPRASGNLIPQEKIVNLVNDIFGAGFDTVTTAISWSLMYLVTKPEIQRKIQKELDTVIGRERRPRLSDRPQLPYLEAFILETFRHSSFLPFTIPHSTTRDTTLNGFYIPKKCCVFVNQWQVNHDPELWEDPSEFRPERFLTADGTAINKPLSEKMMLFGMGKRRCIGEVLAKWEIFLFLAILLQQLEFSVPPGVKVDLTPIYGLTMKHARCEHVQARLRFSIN

Protein skinhead-1 = molecular target: T2, Protein skinhead-1 (Caenorhabditis elegans, UniProt P34707); assay type: functional
T2 sequence (P34707 whole entry): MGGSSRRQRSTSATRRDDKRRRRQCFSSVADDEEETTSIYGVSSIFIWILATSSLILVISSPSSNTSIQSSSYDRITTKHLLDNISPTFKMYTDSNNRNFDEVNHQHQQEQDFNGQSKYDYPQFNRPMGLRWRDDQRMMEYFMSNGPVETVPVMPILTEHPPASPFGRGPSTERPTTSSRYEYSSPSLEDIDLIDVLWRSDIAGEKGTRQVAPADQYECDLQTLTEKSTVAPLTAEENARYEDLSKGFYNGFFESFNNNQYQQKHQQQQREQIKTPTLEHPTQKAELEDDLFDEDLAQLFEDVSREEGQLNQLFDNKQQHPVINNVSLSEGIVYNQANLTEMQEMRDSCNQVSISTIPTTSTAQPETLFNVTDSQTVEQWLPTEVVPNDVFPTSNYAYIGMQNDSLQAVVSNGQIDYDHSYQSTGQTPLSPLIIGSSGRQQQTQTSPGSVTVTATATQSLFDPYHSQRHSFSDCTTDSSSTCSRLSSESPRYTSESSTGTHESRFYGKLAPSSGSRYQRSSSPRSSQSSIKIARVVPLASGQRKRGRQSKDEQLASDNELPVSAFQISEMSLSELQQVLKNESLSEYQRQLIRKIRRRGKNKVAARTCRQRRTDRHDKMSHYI

Cytochrome P450 3A4 = Cytochrome P450 3A4 (Homo sapiens, UniProt P08684);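 note: CYP3A4 tested as one member of a cytochrome P450 panel screen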
[1] = Luminescence Cell-Based Dose Response HTS to Identify Inhibitors of 5'UTR Stem-Loop Driven Prion Protein mRNA Translation in H4 Neuroglioblastoma Cells. [Related pubchem assays: 1827 (Project Summary), 1813 (Primary HTS)]; assay type: functional
[2] = molecular target: T3, Short transient receptor potential channel 4 (Mus musculus, UniProt Q9QUQ5); assay: mouse TRPC4 channel inhibitors, dose response, cell-based, HEK293 TRPC4/mu-opioid, Fluo-4 calcium (AID 434942); assay type: functional;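 note: potency of inhibitors blocking the TRPC4 calcium response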
T3 sequence (Q9QUQ5 whole entry): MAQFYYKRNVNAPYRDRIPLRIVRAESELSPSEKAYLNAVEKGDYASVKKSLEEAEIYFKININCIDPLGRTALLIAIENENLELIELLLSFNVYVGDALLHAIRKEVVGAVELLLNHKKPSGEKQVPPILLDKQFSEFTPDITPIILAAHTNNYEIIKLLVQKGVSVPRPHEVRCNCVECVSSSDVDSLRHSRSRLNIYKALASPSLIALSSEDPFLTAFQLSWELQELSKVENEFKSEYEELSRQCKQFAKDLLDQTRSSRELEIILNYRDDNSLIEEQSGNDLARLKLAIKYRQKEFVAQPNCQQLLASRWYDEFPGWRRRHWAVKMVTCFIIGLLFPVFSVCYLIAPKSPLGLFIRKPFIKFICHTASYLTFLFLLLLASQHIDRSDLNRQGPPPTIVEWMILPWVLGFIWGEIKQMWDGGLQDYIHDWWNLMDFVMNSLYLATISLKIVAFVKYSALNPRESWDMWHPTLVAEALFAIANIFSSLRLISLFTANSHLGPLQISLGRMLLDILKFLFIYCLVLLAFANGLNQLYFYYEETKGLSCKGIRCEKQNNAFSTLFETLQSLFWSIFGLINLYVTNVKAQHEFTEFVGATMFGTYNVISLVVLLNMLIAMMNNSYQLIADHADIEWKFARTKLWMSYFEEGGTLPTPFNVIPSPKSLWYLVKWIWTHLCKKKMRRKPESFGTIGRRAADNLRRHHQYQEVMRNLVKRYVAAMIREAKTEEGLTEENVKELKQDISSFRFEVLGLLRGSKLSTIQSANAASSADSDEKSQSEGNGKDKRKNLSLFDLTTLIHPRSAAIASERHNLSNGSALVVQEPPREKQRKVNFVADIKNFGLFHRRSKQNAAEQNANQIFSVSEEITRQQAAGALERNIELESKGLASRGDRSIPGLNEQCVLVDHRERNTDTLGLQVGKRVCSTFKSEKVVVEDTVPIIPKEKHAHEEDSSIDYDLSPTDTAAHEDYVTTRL

[3] = Shn3 3'UTR reporter inhibitors, dose response, cell-based, Clone20 osteoblasts, firefly luciferase, cherry-picked (AID 624132); assay type: functional;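 note: firefly luciferase luminescence from reporter carrying the Shn3 3'UTR in osteoblasts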
[4] = inhibitors of intracellular T. cruzi replication, confirmation, NIH3T3 host cells, beta-gal luminescence (AID 2044); assay type: functional, cell-based;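 note: intracellular parasites grown in NIH/3T3 mouse fibroblasts as host cells; luminescent beta-galactosidase reporter signal from transgenic T. cruzi replicating inside host cells; inhibitors lower the luminescence signal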
[5] = HepG2 cell cytotoxicity, dose response, cytotoxicity control for Shn3 inhibitor project, CellTiter-Glo, cherry-picked (AID 624134); assay type: functional, cell-based
[6] = cytotoxicity toward NIH3T3 fibroblasts, dose response, counter-screen, cell-based, ATP luminescence, mouse fibroblasts (AID 2010); assay type: functional;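 note: cells exposed to compound for about 90 hours before reading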
[7] = inhibitors of SNCA 5'UTR-driven reporter translation, confirmation, H4 neuroglioma cells, luminescence (AID 1988); assay type: functional, cell-based
[8] = inhibitors of firefly luciferase expression or activity, dose response, H4 neuroglioma cells, luminescence (AID 1990); assay type: functional, cell-based
[9] = control 3'UTR Renilla luciferase suppression, dose response, counter-screen for Shn3 inhibitor project, cell-based, Clone20-Shn3RL, cherry-picked (AID 624133); assay type: functional
INS1 = assay: beta cell apoptosis inhibitors, cytokine rescue, dose response, luminescence, retest (AID 449756); assay type: functional, cell-based; settings: Rattus norvegicus;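 note: cell death triggered by IL-1 beta plus TNF-alpha plus IFN-gamma mixture; protective hits raise ATP signal compared with cytokine alone wells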
[10] = molecular target: T4, Ubiquitin-conjugating enzyme E2 N (Homo sapiens, UniProt P61088); assay type: functional;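 note: Dose-response confirmation in a TR-FRET assay detecting UBC13-driven polyubiquitin chain formation, inhibition measured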
T4 sequence (P61088 whole entry): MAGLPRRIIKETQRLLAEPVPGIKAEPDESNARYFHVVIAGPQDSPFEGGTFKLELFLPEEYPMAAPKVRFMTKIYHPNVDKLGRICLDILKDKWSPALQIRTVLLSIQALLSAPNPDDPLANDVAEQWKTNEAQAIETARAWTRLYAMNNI

Cytochrome P450 2D6 = Cytochrome P450 2D6 (Homo sapiens, UniProt P10635);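 note: CYP2D6 member of a cytochrome P450 panel assay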
Cytochrome P450 2C19 = Cytochrome P450 2C19 (Homo sapiens, UniProt P33261); assay: Cytochrome panel assay with activity outcomes. Panel member name: p450-cyp2c19 Compounds with AC50 equal or less than 10 uM are considered active; assay type: functional; settings: read-out: AC50
[11] = THP-1 cell cytotoxicity, dose response, cytotoxicity control for non-replicating M. tuberculosis project (AID 489025); assay type: functional
cells = assay type: functional
[12] = microbe, parasite or virus in culture; assay type: functional; settings: Mycobacterium tuberculosis
Cytochrome P450 2C9 = Cytochrome P450 2C9 (Homo sapiens, UniProt P11712)
[13] = LGR2 antagonists, dose response, cell-based, HEK293, CRE-luciferase reporter, cherry pick, set 2 (AID 743343); assay type: functional;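 note: transfected cells were stimulated with diluted bursicon conditioned medium after compound addition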
[14] = MC4R antagonists, dose response, counter-screen for LGR2 antagonist project, cell-based, plate reader, cherry pick (AID 743444); assay type: functional;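 note: transfected HEK 293 cells stimulated with alpha-MSH peptide; potency of inhibitors of the alpha-MSH evoked signal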
[15] = molecular target: T5, Rac GTPase-activating protein 1 (Homo sapiens, UniProt Q9H0H5); assay: MgcRacGAP GTPase-activating activity inhibitors, confirmation, biochemical, ADP Hunter fluorescence, primary and confirmatory (AID 624330); assay type: functional
T5 sequence (Q9H0H5 whole entry): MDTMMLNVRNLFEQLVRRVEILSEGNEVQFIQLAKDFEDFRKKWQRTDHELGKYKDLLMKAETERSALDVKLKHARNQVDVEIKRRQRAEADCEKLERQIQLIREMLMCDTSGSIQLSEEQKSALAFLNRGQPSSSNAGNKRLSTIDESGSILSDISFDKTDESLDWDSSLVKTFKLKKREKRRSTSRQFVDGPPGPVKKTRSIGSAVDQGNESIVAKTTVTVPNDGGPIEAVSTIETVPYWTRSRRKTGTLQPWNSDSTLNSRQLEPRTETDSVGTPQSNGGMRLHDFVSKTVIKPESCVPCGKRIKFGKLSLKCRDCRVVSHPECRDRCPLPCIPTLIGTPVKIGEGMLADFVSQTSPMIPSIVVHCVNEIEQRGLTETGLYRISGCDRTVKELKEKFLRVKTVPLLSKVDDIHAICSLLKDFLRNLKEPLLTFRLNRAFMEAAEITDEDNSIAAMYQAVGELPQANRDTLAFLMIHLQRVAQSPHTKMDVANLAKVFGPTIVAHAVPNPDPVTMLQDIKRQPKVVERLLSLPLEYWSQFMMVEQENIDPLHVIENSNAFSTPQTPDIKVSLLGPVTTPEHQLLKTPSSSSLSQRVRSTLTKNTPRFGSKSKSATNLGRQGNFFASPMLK

[16] = Luminescence Cell-Based Dose Confirmation HTS to Identify Inhibitors of Platelet Dense Granule Release. [Related pubchem assays: 1663 (Primary HTS), 1678 (Summary of Project)]; assay type: functional
[17] = molecular target: Luciferin 4-monooxygenase (Photinus pyralis, UniProt P08659); assay: firefly luciferase enzyme inhibitors, dose response, biochemical, luminescence (AID 1891)
[18] = Luminescence Cell-Based Dose Response HTS to Identify Activators of Luciferase Translation or Activity in H4 […] Cells. [Related pubchem assays: 1829 (Project Summary), 1814 (Primary HTS)]; assay type: functional
[19] = P. falciparum Dd2 growth inhibitors, dose response, SYBR Green, cherry-picked samples (AID 1159567); assay type: functional, cell-based

Sequence of Cytochrome P450 2C19 (P33261 whole entry): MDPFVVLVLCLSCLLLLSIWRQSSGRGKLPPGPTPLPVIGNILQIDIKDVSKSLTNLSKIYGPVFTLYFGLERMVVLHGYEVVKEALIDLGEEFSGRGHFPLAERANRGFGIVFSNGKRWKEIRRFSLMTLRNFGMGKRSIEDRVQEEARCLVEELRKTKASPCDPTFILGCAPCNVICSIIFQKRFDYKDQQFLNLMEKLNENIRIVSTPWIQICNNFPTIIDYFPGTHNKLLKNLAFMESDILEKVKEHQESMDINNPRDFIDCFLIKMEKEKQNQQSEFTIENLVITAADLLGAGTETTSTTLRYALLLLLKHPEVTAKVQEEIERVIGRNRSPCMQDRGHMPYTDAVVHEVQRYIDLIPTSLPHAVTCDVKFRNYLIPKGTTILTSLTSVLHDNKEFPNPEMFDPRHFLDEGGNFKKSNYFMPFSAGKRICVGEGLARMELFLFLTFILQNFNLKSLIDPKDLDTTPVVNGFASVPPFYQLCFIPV
Sequence of Cytochrome P450 2C9 (P11712 whole entry): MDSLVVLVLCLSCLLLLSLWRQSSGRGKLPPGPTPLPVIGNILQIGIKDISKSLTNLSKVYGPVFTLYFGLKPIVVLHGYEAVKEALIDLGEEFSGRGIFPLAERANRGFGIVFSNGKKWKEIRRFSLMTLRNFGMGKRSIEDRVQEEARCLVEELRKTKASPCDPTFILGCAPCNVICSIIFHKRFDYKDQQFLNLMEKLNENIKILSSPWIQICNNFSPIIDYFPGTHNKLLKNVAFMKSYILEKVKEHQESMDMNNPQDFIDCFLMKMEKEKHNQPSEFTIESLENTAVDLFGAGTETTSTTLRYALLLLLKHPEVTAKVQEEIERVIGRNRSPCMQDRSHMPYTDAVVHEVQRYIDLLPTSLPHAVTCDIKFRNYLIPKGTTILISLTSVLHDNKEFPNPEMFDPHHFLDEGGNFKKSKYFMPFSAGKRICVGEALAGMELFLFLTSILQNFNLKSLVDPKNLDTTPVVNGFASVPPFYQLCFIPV
Sequence of Cytochrome P450 3A4 (P08684 whole entry): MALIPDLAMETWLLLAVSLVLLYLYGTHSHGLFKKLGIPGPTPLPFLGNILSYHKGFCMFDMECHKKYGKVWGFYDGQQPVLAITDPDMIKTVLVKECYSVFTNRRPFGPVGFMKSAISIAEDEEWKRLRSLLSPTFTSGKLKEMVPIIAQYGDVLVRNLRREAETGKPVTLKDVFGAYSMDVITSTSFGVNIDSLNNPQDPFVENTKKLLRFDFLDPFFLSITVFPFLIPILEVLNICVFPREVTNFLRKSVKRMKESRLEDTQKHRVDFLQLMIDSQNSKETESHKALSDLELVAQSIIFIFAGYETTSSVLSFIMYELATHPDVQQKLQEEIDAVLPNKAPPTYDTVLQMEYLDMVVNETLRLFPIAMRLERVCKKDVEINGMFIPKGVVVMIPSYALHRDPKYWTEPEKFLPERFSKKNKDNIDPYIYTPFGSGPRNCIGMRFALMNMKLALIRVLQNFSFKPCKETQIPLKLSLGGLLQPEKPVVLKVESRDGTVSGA
Sequence of Luciferin 4-monooxygenase (P08659 whole entry): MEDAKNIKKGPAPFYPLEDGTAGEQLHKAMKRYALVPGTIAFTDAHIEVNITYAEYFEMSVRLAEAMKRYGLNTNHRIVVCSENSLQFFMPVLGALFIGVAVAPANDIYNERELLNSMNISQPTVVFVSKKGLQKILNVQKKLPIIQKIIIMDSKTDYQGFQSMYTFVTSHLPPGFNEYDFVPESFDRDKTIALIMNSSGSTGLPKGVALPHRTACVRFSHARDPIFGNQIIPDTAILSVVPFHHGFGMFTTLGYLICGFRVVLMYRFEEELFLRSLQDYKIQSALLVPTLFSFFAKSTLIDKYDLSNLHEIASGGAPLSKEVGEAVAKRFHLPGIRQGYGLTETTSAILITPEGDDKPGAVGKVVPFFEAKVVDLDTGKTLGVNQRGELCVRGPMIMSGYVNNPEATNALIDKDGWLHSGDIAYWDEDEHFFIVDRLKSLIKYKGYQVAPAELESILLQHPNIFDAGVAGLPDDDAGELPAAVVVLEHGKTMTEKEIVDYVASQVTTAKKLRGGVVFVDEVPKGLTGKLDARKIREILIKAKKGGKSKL
Sequence of Cytochrome P450 2D6 (P10635 whole entry): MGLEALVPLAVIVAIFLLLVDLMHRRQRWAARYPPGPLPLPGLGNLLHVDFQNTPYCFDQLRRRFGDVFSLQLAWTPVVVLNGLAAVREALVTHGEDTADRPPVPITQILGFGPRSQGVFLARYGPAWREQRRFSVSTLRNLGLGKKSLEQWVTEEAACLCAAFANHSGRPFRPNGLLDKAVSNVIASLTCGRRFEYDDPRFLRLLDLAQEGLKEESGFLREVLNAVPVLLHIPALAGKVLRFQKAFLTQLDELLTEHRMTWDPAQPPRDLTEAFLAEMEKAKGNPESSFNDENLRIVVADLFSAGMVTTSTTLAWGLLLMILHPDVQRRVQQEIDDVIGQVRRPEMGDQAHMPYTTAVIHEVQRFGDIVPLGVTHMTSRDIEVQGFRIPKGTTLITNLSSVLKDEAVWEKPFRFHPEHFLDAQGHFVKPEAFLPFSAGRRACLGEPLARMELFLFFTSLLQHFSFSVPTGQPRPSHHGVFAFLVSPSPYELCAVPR

O=C1CC2(CCCC2)CC(=O)N1CCCCNC[C@H]1COc2ccccc2O1
AC50 (Cytochrome P450 1A2): 79.4 µM (inconclusive)

CCCCCNC(=O)c1ccccc1SC
IC50 (Protein skinhead-1): 74.6 µM (inactive)

Oc1ccc(CCNCc2cc3c(cc2Br)OCO3)cc1
AC50 (Cytochrome P450 1A2): 1 µM (inconclusive)
AC50 (Cytochrome P450 3A4): 3.98 µM (inconclusive)

O=S(=O)(O)c1ccc2c(/N=N\c3cccc4ccccc34)c(O)c(S(=O)(=O)O)cc2c1
AC50 (Cytochrome P450 1A2): 5.01 µM (inconclusive)

CCOc1cc(CNCCCN2CCOCC2)cc(Br)c1OCc1ccccc1Cl
EC50 [1]: > 120 µM (not active)
EC50 [2]: 4.22 µM (active)
AC50 [3]: 9.31 µM (active)
EC50 [4]: 0.539 µM (active)
AC50 [5]: 11 µM (active)
EC50 [6]: 12 µM (active)
EC50 [7]: > 120 µM (not active)
EC50 [8]: > 120 µM (not active)
AC50 [9]: 19.3 µM (active)

c1ccc(C2(Cn3ccc4ccccc43)OCCO2)cc1
IC50 (Protein skinhead-1): > 100 µM (inactive)
AC50 (INS1): 40.2 µM (active)

CC(C)(C)NC(=O)CN(C(=O)CCC(=O)Nc1nccs1)c1cccc(C(F)(F)F)c1
IC50 (Protein skinhead-1): > 100 µM (inactive)

O=C(C[n+]1cccc(CNC(=O)c2ccc(OC(F)F)cc2)c1)Nc1ccc(SC(F)F)cc1
IC50 [10]: > 20 µM (inactive)
EC50 [2]: 7.5 µM (active)

O=C(c1cccc(F)c1)N1CCC2(CCCN(C(c3ccccc3)c3ccccc3)C2)CC1
AC50 (Cytochrome P450 2D6): 10 µM (inconclusive)
AC50 (Cytochrome P450 1A2): 6.31 µM (inconclusive)
AC50 (Cytochrome P450 2C19): 5.01 µM (inconclusive)

Cn1c(SCc2c(F)cccc2Cl)nc2c(c1=O)SCC2
CC50 [11]: > 40 µM (active)

CC(C)C1NC(=S)N(Cc2ccccc2)C1=O (stereo unspecified)
AC50 (Cytochrome P450 1A2): 20 µM (inconclusive)

Nc1nc2ccccc2n1CCOc1ccccc1Cl
IC50 (cells): 23.8 µM (active)
CC50 [12]: > 40 µM (active)
CC50 [11]: 20.6 µM (active)

O=C(Nc1cnn(Cc2ccc(Cl)cc2)c1)c1ccc([N+](=O)[O-])cc1
AC50 (Cytochrome P450 1A2): 6.31 µM (inconclusive)
AC50 (Cytochrome P450 2C9): 0.501 µM (inconclusive)
AC50 (Cytochrome P450 2C19): 2.24 µM (inconclusive)

c1nc(CCO[C@H]2CCCCO2)cc2cc3c(cc12)OCO3
AC50 [13]: 2.56 µM (active)
AC50 [14]: 3.45 µM (active)

CC1(C(=O)Nc2cnc3ccccc3c2)CCN1C(=O)c1ccccc1CCc1ccccc1 (stereo unspecified)
IC50 (Protein skinhead-1): > 100 µM (inactive)

O=C1C(=Cc2ccccn2)CCc2ccccc21
IC50 (Protein skinhead-1): 43.7 µM (active)

CCN(Cc1ccccc1)c1ccc(/C=N/N2CCOCC2)cc1
IC50 [15]: 63.2 µM (active)

N/C(=N\N=C\c1ccc(O)cc1)c1nonc1N
IC50 [15]: 23.4 µM (active)
EC50 [16]: 1.07 µM (active)
EC50 [17]: 8.45 µM (active)
EC50 [18]: 0.334 µM (active)

CCn1c2ccccc2c2cc(N)ccc21
IC50 [15]: 64.1 µM (active)

COc1ccccc1N=NNc1ccccc1OC
IC50 [15]: 90.3 µM (active)

C[C@@H]1CN([C@@H](C)CO)S(=O)(=O)c2ccc(C#CC3(O)CCCC3)cc2O[C@H]1CN(C)C(=O)c1ccccc1
AC50 [19]: 4.33 µM (active)

CCC(=O)N1CCCCN2[C@H](C1)[C@H](c1ccc(-c3cccnc3)cc1)[C@@H]2CO
AC50 [19]: 21.9 µM (active)

COc1ccccc1NC(=O)N1CCCCN2[C@H](C1)[C@H](c1ccc(C#CC3CC3)cc1)[C@@H]2CO
AC50 [19]: 5.95 µM (active)

O=C(O)c1cnc2c(ccc3ncc(C(=O)O)c(O)c32)c1O
AC50 (Cytochrome P450 1A2): 5.01 µM (inconclusive)

CC[N+](C)(CC)CCOC(=O)C1c2ccccc2Oc2ccccc21 [METHANTHELINE]
AC50 (Cytochrome P450 1A2): 10 µM (inconclusive)
